Assay results reported in patent US7297505B2, “Use of MDCK cell line to predict corneal penetration of drugs” (Alcon, Inc., priority 2004, dated 2007).

Legend:
MDCK(MDR) monolayers = test: in vitro; conditions: MDCK-MDR1
Source text: (§1) The present invention is directed to the use of a new in vitro model for evaluating the ability of a drug molecule to penetrate the cornea. The model involves the use of MDCK cell permeability values to predict the ability of drug molecules to penetrate the cornea. The MDCK permeability values of drug molecules can be determined by means of known methods, such as the methods described in the following scientific articles: • 1. Horio, M, Pastan, I, Gottesman, M M, and Handler, J S. Transepithelial transport of vinblastine by kidney-derived cell lines. Application of a new kinetic model to estimate in situ Km of the pump. […] Pan, B F, Dutt, A, and Nelson, J A. Enhanced transepithelial flux of cimetidine by Madin-Darby canine kidney cells overexpressing human P-glycoprotein. […] The entire contents of the above-cited references relating to methods for determining MDCK permeation values for drug molecules are hereby incorporated in the present specification by reference. […] Various commercial scientific laboratories may be utilized to obtain MDCK permeation values (e.g., Absorption Systems, Exton, Pa., USA).
(§2) In vitro MDCK cell permeability. Permeability and transport studies were conducted and the data were analyzed at Absorption Systems, Exton, Pa., using methods previously described.^12,13 MDCK(MDR) monolayers were grown to confluence on collagen-coated, microporous, polycarbonate membranes in 12-well Costar Transwell plates. To ensure monolayer integrity, the trans epithelial electrical resistance (TEER) was measured. […] The permeability assay buffer was Hank's Balanced Salt Solution containing 10 mM HEPES and 15 mM glucose at a pH of 7.0-7.2. Permeability through a cell-free (blank) membrane was studied to determine non-specific binding and free diffusion of the test article through the device. […] At each time point, 1 and 2 hours, a 200-μL aliquot was taken from the receiver chamber and replaced with fresh assay buffer. Cells were dosed on the apical side [apical-to-basolateral, absorptive transport, […]] or basolateral side [basolateral-to-apical, secretory transport, (B-A)] and incubated at 37° C. with 5% CO2 and 90% relative humidity. Each determination was performed in duplicate. Lucifer Yellow permeability was measured for each monolayer after the experiment, to ensure that the cell monolayer integrity and viability was not compromised by the test article.
(§3) To determine the transport of compounds in the absence of functional P-gp activity, the above experimental conditions were used but in the presence of the P-gp inhibitor cyclosporin A (CSA).^14 For the studies using CSA, cells were pre-incubated for 30 minutes with the inhibitor (10 μM) and washed; during the permeation determination period CSA (10 μM) was present on both sides of the membrane. The Papp A-B determined in the presence of CSA was taken as an estimate of the permeability attributed to passive diffusion for the compound (Papp PD).

P-gp (MDR1) = test: in vitro; conditions: dog, MDCK-MDR1
Source text: as §1, §2, §3

[1] = Ex vivo corneal penetration (perfusion chamber); assay type: in vitro ADME; conditions: rabbit; Table 2; read-out: Ex vivo Rabbit Corneal Permeability, Papp nm/s
Procedure: The intact eyes, along with the lids and conjunctival sacs were then enucleated and immediately stored in about 70 ml of fresh BSS PLUS® Sterile Irrigating Solution (Alcon Laboratories, Inc.) saturated with O2/CO2 (95:5). Within one hour, corneas were mounted in the modified perfusion chamber as described by Schoenwald and Huang (G1). BSS PLUS® solution was used as the receiving and rinsing solution throughout the perfusion experiments. Steady-state conditions were used in order to determine the apparent permeability coefficients. After mounting the corneas in the chamber, 7.5 mls of BSS PLUS® solution was added to the receiving chamber (endothelial side of the cornea). Then, 7 mls of 0.1 mMole solutions of each fluoroquinolone prepared in BSS PLUS® solution was added into the donor chamber (epithelial side of the cornea). Throughout the experiment, both solutions were bubbled continuously with O2/CO2 (95:5) at the rate of about one bubble per second. This provides mixing of the solution in each chamber, oxygenation of the cornea, and pH control. Samples (0.15 ml) were withdrawn from the receiving chamber at 30 min intervals over a period of five hours. BSS PLUS® solution (0.15 ml) was added back to the receiving chamber after each withdrawal to compensate for loss of volume.
At the end of each permeability experiment, The final volume of the receiving chambers was noted, and the viability of the corneas was assessed by determining their hydration level: The corneas were trimmed of excess scleral tissue and conjunctiva, blotted, weighed, dried overnight at room temperature under vacuum over phosphorus pentoxide, and then re-weighed.
C is the steady state measured concentration of […] in the donor solution in units of μg/ml or ppm; and 60 is the conversion of minutes to seconds.

cornea = test: Predicted corneal permeability from MDCK permeability by statistical model; conditions: Corneal Permeability=5.41(MDCK Permeability)−0.01(MDCK Permeability)^2; in nm/s
Source text: The method of the present invention comprises the following steps: (1) determining the MDCK permeation value for a drug molecule; and (2) entering said value in a suitable linear or quadratic statistical model to calculate a predicted corneal permeability value for said molecule. The statistical model is created by obtaining MDCK permeation values and corneal penetration values for at least two representative drug molecules, plotting those values on a graph and deriving a linear or quadratic statistical model from the graph.

Molecule	MDCK^2 (MDCK(MDR) monolayers)	Papp at 10 μM (P-gp (MDR1)) [×10⁻⁶ cm/s]	Papp at 5 h, 0.1 mMole [1] [×10⁻⁶ cm/s]	Predicted Corneal Permeability (cornea)	Post experiment Lucifer Yellow permeability in monolayers (MDCK(MDR) monolayers)
CC(C)(C)NC[C@H](O)COc1nsnc1N1CCOCC1 [Timolol]	1149.21	3.39	24	164.91	
C[C@@H]1C[C@H]2[C@@H]3CCC4=CC(=O)C=C[C@]4(C)[C@@]3(F)[C@@H](O)C[C@]2(C)[C@@]1(O)C(=O)CO [Dexamethasone]	1428.84				
Nc1cc(Cl)c(N=C2NCCN2)c(Cl)c1 [Apraclonidine]	14.44	0.38	3.8	19.58	
CC[C@@H]1C(=O)OC[C@@H]1Cc1cncn1C [Pilocarpine]	1354.24	3.68	9.8	177.99	
Lucifer Yellow					0.24-0.75 ×10^−6 cm/s
CC(C)NCC(O)COc1ccc(CCOCC2CC2)cc1 (stereo not drawn) [Betaxolol]	40804	20.2	60	657.76	
NC(=O)Cc1cccc(C(=O)c2ccccc2)c1N [Nepafenac]	32761	18.1	74	625.74	
O=C1CC2(CCCC2)CC(=O)N1CCCCN1CCN(c2ncccn2)CC1 [Buspirone]	105625	32.5	66.5	675.82	
O=C1OC2(c3ccc(O)cc3Oc3cc(O)ccc32)c2ccccc21 [Fluorescein]	43.56	0.66	16	33.83	
